Data on two compounds can be found in US11840551B2, “Compositions and methods of modulating the immune response by activating alpha protein kinase 1” (Shanghai Yao Yuan Biotechnology Co., Ltd., priority 2017, dated 2023).

The target in test [1] is T1, ALPK1 (Homo sapiens, UniProt Q96QP1). The test is described as follows: In vitro kinase assay of ALPK1-dependent TIFA phosphorylation. The class given is biochemical. The method, then: We performed an in vitro kinase assay with H1b-ADP and H1b-ADP-6L along with ALPK1 protein (2 nM), and TIFA protein (1.6 uM) in kinase buffer containing 50 uM ATP. TIFA phosphorylation was analyzed by denaturing gel electrophoresis followed by western blotting using an anti-phosphothreonine antibody. H1b-ADP or H1b-ADP-6L was added at 2 nM, 0.4 nM, 80 pM, 16 pM, and 3 pM.
T1 sequence (Q96QP1 whole entry): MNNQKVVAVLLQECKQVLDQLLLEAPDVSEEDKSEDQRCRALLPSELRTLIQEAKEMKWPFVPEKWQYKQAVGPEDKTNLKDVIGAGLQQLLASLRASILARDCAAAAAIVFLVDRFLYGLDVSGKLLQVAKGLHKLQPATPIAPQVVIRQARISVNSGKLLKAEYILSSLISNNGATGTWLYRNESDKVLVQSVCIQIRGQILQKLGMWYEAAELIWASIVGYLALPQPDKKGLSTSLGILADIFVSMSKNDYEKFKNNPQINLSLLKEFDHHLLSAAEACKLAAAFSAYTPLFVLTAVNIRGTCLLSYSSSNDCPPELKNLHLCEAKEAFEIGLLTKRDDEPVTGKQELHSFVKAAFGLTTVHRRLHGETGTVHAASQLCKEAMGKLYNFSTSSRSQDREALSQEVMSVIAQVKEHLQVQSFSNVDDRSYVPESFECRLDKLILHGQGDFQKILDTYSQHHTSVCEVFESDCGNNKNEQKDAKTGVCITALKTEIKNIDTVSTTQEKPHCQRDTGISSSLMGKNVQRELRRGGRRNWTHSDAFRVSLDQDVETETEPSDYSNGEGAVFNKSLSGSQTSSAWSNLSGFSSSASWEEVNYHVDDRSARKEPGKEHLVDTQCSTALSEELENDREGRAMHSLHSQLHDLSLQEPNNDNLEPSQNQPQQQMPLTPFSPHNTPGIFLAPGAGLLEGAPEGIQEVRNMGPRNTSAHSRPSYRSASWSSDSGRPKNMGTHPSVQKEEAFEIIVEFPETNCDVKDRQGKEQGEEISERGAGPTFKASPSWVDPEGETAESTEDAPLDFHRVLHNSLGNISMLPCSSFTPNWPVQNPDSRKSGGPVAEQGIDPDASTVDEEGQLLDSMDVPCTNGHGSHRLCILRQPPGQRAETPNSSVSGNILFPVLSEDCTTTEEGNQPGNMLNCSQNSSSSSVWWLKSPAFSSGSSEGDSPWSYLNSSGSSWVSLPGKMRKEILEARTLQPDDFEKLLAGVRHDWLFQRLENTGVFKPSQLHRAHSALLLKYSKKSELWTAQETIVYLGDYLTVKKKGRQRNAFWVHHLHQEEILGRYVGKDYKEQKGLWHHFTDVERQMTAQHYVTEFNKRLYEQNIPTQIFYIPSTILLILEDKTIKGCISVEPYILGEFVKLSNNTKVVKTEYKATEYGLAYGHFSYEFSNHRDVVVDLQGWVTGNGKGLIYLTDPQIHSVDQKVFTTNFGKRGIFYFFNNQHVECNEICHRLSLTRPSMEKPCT
To test this, we performed an in vitro kinase reaction for ALPK1-dependent TIFA phosphorylation in the presence of either HBP or HIdA purified from E. coli containing inactivated HIdE, or in the presence of HBP and HIdA purified from the same HIdE wild-type E. coli used in the previous experiments. Phosphorylated TIFA (three concentrations, 1%, 0.2% and […]) was detected as described above by denaturing gel electrophoresis followed by Western analysis.

Test [2] has as its target T1, ALPK1. The test can be described thus: IL-8 and TNFα mRNA expression in HEK293 cells with control or ALPK1-directed siRNA (qPCR). It counts as cell-based. On the set-up: silence ALPK1 expression in HEK293 cells; endogenous in cells; host or cells: HEK293. To be noted: control vs ALPK1-directed siRNA, 4 hours, HBP 500, 100, 20 uM, HMP-1bP 500, 100 uM, H1b-ADP 100, 20, 4, 0.8 nM. How it is done: To test whether HBP, HMP-1bP, and H1b-ADP were able to induce cytokine expression in an ALPK1 dependent manner, we used an ALPK1-directed small interfering RNA (siRNA) to silence ALPK1 expression in HEK293 cells. Cells were plated (1×10^4 cells/well) into 96-well plates and transfected with either control siRNA or ALPK1-directed siRNA according to the manufacturer's protocols (Lipofectamine™ RNAiMax™, Invitrogen 13778075). Following 2 days of culture, either (1) HBP (500 uM, 100 uM, 20 uM, FIG. 2A-2B) (2) HMP-1bP (500 uM, 100 uM, FIG. 3A-3B), (3) H1b-ADP (100 nM, 20 nM, 4 nM, 0.8 nM, FIG. 4A-4B) was added to culture medium and cells were harvested 4 hours later.
In general terms: In qPCR the cycle at which signal appears reflects the starting amount.

In test [3] the target is T1, ALPK1. The test can be described thus: Cell-free kinase assay of ALPK1 autophosphorylation (Western, anti-phospho-threonine). The class given is biochemical. To be noted: 2 nM ALPK1 with ATP, 25° C., 1 h; H1b-ADP 10, 1, 0.2 nM; HBP and HMP-1bP 1, 10, 100 nM. The method, then: ALPK1 activation results in its autophosphorylation. Accordingly, we next asked whether the binding of H1b-ADP to ALPK1 was sufficient to induce ALPK1 autophosphorylation. Phosphorylation assays were performed according to standard protocols. Briefly, ALPK1 was incubated (2 nM, 25° C., 1 h) in assay buffer (20 μl, 25 mM HEPES pH 7.5, 50 mM KCl, 0.1 mM EDTA, 0.1 mM EGTA, 2 mM DTT, 1.5 mM CaCl2, 10 mM MgCl2) with ATP and chemically synthesized HBP, HMP-1bP, or H1b-ADP followed by denaturing gel electrophoresis and Western analysis with an anti-phospho-threonine antibody (CST) to detect autophosphorylation of ALPK1. […] The range of concentrations of HBP and HMP-1bP used in this assay (1 nM, 10 nM, 100 nM) was 10-fold higher than that used for H1b-ADP.

For `Nc1ncnc2c1ncn2[C@@H]1O[C@H](COP(=O)(O)OP(=O)(O)O[C@@H]2O[C@H]([C@H](O)CO)[C@@H](O)[C@H](O)[C@@H]2O)[C@@H](O)[C@H]1O` [Compound H1b-ADP, D-glycero-D-manno-heptose-1β-ADP], the TIFA phosphorylation entry in test [1] (ALPK1 2 nM, TIFA 1.6 uM, 50 uM ATP, compound 2 nM, 0.4 nM, 80 pM, 16 pM, 3 pM) is given as “phosphorylation of the ALPK1 substrate TIFA”. Also, in test [2], the “IL-8 mRNA expression” value was “increased in an ALPK1-dependent manner” and the “TNFα mRNA expression” value is listed as “increased in an ALPK1-dependent manner”. For the same compound, the “autophosphorylation of ALPK1” value in test [3] is listed as “phosphorylation of ALPK1 was detected only in the presence of H1b-ADP”.
Turning to `O=P(O)(O)O[C@@H]1O[C@H]([C@H](O)CO)[C@@H](O)[C@H](O)[C@@H]1O` [HMP-1bP, D-glycero-β-D-manno-heptose-1-phosphate], the “phosphorylation of the ALPK1 substrate TIFA” value in test [1] (FIG. 7, chemically-synthesized compounds) is “TIFA is phosphorylated only in the presence of H1b-ADP”. In test [2], the “IL-8 mRNA expression” value is on record as “increased in an ALPK1-dependent manner” and the “TNFα mRNA expression” value is recorded as “increased in an ALPK1-dependent manner”. Also, the “autophosphorylation of ALPK1” value in test [3] is “not HBP or HMP-1bP induces ATP-dependent autophosphorylation”.
